Laboratory results taken from patent US20170189504A1, “NOVEL PEPTIDES AND COMBINATION OF PEPTIDES FOR USE IN IMMUNOTHERAPY AGAINST VARIOUS CANCERS” (immatics biotechnologies GmbH, priority 2015, published 2017).

Each substance was assayed on HLA-A*02 (assay: MHC binding assay, UV-ligand exchange with β2m ELISA, HLA-A*02 (Table 20)). Conditions: binding to HLA-A*02 ranged by peptide exchange yield (UV-ligand exchange, β2m ELISA).
Design: species or system human
Excerpt: (§1) Candidate peptides for T cell based therapies according to the present invention were further tested for their MHC binding capacity (affinity). The individual peptide-MHC complexes were produced by UV-ligand exchange, where a UV-sensitive peptide is cleaved upon UV-irradiation, and exchanged with the peptide of interest as analyzed. Only peptide candidates that can effectively bind and stabilize the peptide-receptive MHC molecules prevent dissociation of the MHC complexes. To determine the yield of the exchange reaction, an ELISA was performed based on the detection of the light chain ((β2m) of stabilized MHC complexes. The assay was performed as generally described in Rodenko et al. (Rodenko et al., 2006).
(§2) 96 well MAXISorp plates (NUNC) were coated over night with 2 ug/ml streptavidin in PBS at room temperature, washed 4× and blocked for 1 h at 37° C. in 2% BSA containing blocking buffer. Refolded HLA-A*02:01/MLA-001 monomers served as standards, covering the range of 15-500 ng/ml. Peptide-MHC monomers of the UV-exchange reaction were diluted 100 fold in blocking buffer. Samples were incubated for 1 h at 37° C., washed four times, incubated with 2 ug/ml HRP conjugated anti-β2m for 1 h at 37° C., washed again and detected with TMB solution that is stopped with […]. Absorption was measured at 450 nm. Candidate peptides that show a high exchange yield (preferably higher than 50%, most preferred higher than 75%) are generally preferred for a generation and production of antibodies or fragments thereof, and/or T cell receptors or fragments thereof, as they show sufficient avidity to the MHC molecules and prevent dissociation of the MHC complexes.

Substance	Peptide exchange
122 (GVVDPVHGV; listed as Homo sapiens) [compound 122]	++ (20%-49% = ++)
53 (KMVGLVVAI; listed as Homo sapiens) [compound 53]	+++ (50%-75% = +++)

Each substance was assayed on HLA-A*24 (assay: MHC binding assay, UV-ligand exchange with β2m ELISA, HLA-A*24 (Table 21)). Conditions: binding to HLA-A*24 ranged by peptide exchange yield (UV-ligand exchange, β2m ELISA).
Design: species or system human
Excerpt: as §1, §2

Substance	Peptide exchange
287 (LYITEPKTI; listed as Homo sapiens) [compound 287]	+++ (50%-75% = +++)
217 (FFPPTRQMGLLF; listed as Homo sapiens) [compound 217]	++++ (≧75% = ++++)
191 (VFKASKITF; listed as Homo sapiens) [compound 191]	+++ (50%-75% = +++)
228 (KYTSWYVAL; listed as Homo sapiens) [compound 228]	++++ (≧75% = ++++)
215 (YFDKVVTL; listed as Homo sapiens) [compound 215]	++ (20%-49% = ++)
184 (VFQNFPLLF; listed as Homo sapiens) [compound 184]	++++ (≧75% = ++++)
282 (KFVDSTFYL; listed as Homo sapiens) [compound 282]	++++ (≧75% = ++++)
174 (VYVGGGQIIHL; listed as Homo sapiens) [compound 174]	+++ (50%-75% = +++)
224 (QYLENLEKL; listed as Homo sapiens) [compound 224]	+++ (50%-75% = +++)
203 (FYSRLLQKF; listed as Homo sapiens) [compound 203]	+++ (50%-75% = +++)
188 (RYFKGLVF; listed as Homo sapiens) [compound 188]	+++ (50%-75% = +++)
180 (IYDDSFIRPVTF; listed as Homo sapiens) [compound 180]	+++ (50%-75% = +++)
225 (YYVYIMNHL; listed as Homo sapiens) [compound 225]	+++ (50%-75% = +++)
193 (RFHPTPLLL; listed as Homo sapiens) [compound 193]	++++ (≧75% = ++++)
185 (IYKVGAPTI; listed as Homo sapiens) [compound 185]	+++ (50%-75% = +++)
273 (TYIKPISKL; listed as Homo sapiens) [compound 273]	+++ (50%-75% = +++)
216 (QYSSVFKSL; listed as Homo sapiens) [compound 216]	++++ (≧75% = ++++)
186 (IFPQFLYQF; listed as Homo sapiens) [compound 186]	++++ (≧75% = ++++)
227 (IFLDYEAGTLSF; listed as Homo sapiens) [compound 227]	++++ (≧75% = ++++)
276 (VYGFQWRHF; listed as Homo sapiens) [compound 276]	++++ (≧75% = ++++)
177 (VYPWLGALL; listed as Homo sapiens) [compound 177]	++++ (≧75% = ++++)
190 (GFFIFNERF; listed as Homo sapiens) [compound 190]	+++ (50%-75% = +++)

Substance	Peptide exchange
267 (KYMVYPQTF; listed as Homo sapiens) [compound 267]	++++ (≧75% = ++++)
211 (YYLEVGKTLI; listed as Homo sapiens) [compound 211]	++++ (≧75% = ++++)
275 (EYINQGDLHEF; listed as Homo sapiens) [compound 275]	+++ (50%-75% = +++)
219 (EYPLVINTL; listed as Homo sapiens) [compound 219]	+++ (50%-75% = +++)
270 (NYYEVHKELF; listed as Homo sapiens) [compound 270]	+++ (50%-75% = +++)
192 (SYALLTYMI; listed as Homo sapiens) [compound 192]	++++ (≧75% = ++++)
201 (IYATEAHVF; listed as Homo sapiens) [compound 201]	+++ (50%-75% = +++)
284 (RYLNKAFHI; listed as Homo sapiens) [compound 284]	+++ (50%-75% = +++)
286 (RYPDNLKHL; listed as Homo sapiens) [compound 286]	++ (20%-49% = ++)
202 (VYWDSAGAAHF; listed as Homo sapiens) [compound 202]	++++ (≧75% = ++++)
208 (TYTQDFNKF; listed as Homo sapiens) [compound 208]	+++ (50%-75% = +++)
179 (MYDSYWRQF; listed as Homo sapiens) [compound 179]	++++ (≧75% = ++++)
172 (TYTTVPRVAF; listed as Homo sapiens) [compound 172]	++++ (≧75% = ++++)
283 (TYGDAGLTYTF; listed as Homo sapiens) [compound 283]	+++ (50%-75% = +++)
194 (EFGSLHLEFL; listed as Homo sapiens) [compound 194]	+ (<20% = +)
164 (KFSSFSLFF; listed as Homo sapiens) [compound 164]	+++ (50%-75% = +++)
189 (WYVNGVNYF; listed as Homo sapiens) [compound 189]	++ (20%-49% = ++)
209 (TYKDEGNDYF; listed as Homo sapiens) [compound 209]	+++ (50%-75% = +++)
175 (YYEVHKELF; listed as Homo sapiens) [compound 175]	++++ (≧75% = ++++)
210 (IYTMIYRNL; listed as Homo sapiens) [compound 210]	++++ (≧75% = ++++)
288 (VYVSDIQEL; listed as Homo sapiens) [compound 288]	+++ (50%-75% = +++)
289 (KYPVEWAKF; listed as Homo sapiens) [compound 289]	++++ (≧75% = ++++)

Substance	Peptide exchange
277 (VYQGHTALL; listed as Homo sapiens) [compound 277]	++++ (≧75% = ++++)
272 (QYLQDAYSF; listed as Homo sapiens) [compound 272]	++++ (≧75% = ++++)
274 (AYLHSHALI; listed as Homo sapiens) [compound 274]	++++ (≧75% = ++++)
206 (EYQENFLSF; listed as Homo sapiens) [compound 206]	+++ (50%-75% = +++)
280 (RYPDNLKHLYL; listed as Homo sapiens) [compound 280]	++++ (≧75% = ++++)
178 (IFIEVFSHF; listed as Homo sapiens) [compound 178]	+++ (50%-75% = +++)
279 (TYIESASEL; listed as Homo sapiens) [compound 279]	+++ (50%-75% = +++)
205 (VHIPEVYLI; listed as Homo sapiens) [compound 205]	+++ (50%-75% = +++)
271 (LYHDIFSRL; listed as Homo sapiens) [compound 271]	++++ (≧75% = ++++)
198 (LYLDKATLI; listed as Homo sapiens) [compound 198]	+++ (50%-75% = +++)
171 (LFIPSSKLLFL; listed as Homo sapiens) [compound 171]	+++ (50%-75% = +++)
170 (VYEDQVGKF; listed as Homo sapiens) [compound 170]	++ (20%-49% = ++)
226 (VYRDETGELF; listed as Homo sapiens) [compound 226]	+++ (50%-75% = +++)
187 (TYLRDQHFL; listed as Homo sapiens) [compound 187]	++++ (≧75% = ++++)
221 (RYSTGLAGNLL; listed as Homo sapiens) [compound 221]	+++ (50%-75% = +++)
181 (LYLDIINLF; listed as Homo sapiens) [compound 181]	++++ (≧75% = ++++)
195 (TYSVSFPMF; listed as Homo sapiens) [compound 195]	++++ (≧75% = ++++)
278 (RYISDQLFTNF; listed as Homo sapiens) [compound 278]	++++ (≧75% = ++++)
223 (KYIPYKYVI; listed as Homo sapiens) [compound 223]	+++ (50%-75% = +++)
183 (VFTSTARAF; listed as Homo sapiens) [compound 183]	+++ (50%-75% = +++)
182 (IYQLDTASI; listed as Homo sapiens) [compound 182]	+++ (50%-75% = +++)
214 (LYLKLWNLI; listed as Homo sapiens) [compound 214]	+++ (50%-75% = +++)
